From ChEMBL document CHEMBL1154545, “Optimization of a series of 4,6-bis-anilino-1H-pyrrolo[2,3-d]pyrimidine inhibitors of IGF-1R: elimination of an acid-mediated decomposition pathway” (Bioorg Med Chem Lett, 2009)

Assays:
[1] = Chemical stability assessed as half life in 0.1 N HCl by LC-MS; type: physicochemical
[2] = molecular target: T1, Insulin-like growth factor 1 receptor (Homo sapiens, UniProt P08069)
[3] = molecular target: T1, Insulin-like growth factor 1 receptor; remark: listed apart in the source
Description: Inhibition of IGF1R phosphorylation by cellular assay

[4] = Clearance in rat at 2.2 mg/kg, iv or 9.8 mg/kg, po; type: ADME, organism-based; settings: in vivo
Rattus norvegicus [5] = experiment: Dose normalized AUC in rat at 9.8 mg/kg, po; type: ADME, organism-based; design: dose 9.8 mg/kg, route oral; settings: in vivo
[6] = Bioavailability in rat at 9.8 mg/kg, po; type: ADME, organism-based; settings: in vivo
[7] = Clearance in rat at 2.1 mg/kg, iv or 9.2 mg/kg, po; type: ADME, organism-based; settings: in vivo
Rattus norvegicus [8] = experiment: Dose normalized AUC in rat at 9.2 mg/kg, po; type: ADME, organism-based; design: dose 9.2 mg/kg, route oral; settings: in vivo
[9] = Bioavailability in rat at 9.2 mg/kg, po; type: ADME, organism-based; settings: in vivo
[10] = molecular target: ALK tyrosine kinase receptor (Homo sapiens, UniProt Q9UM73); experiment: Inhibition of ALK
[11] = molecular target: Phosphatidylinositol 4,5-bisphosphate 3-kinase catalytic subunit alpha isoform (Homo sapiens, UniProt P42336); experiment: Inhibition of PI3K
[12] = molecular target: RAC-alpha serine/threonine-protein kinase (Homo sapiens, UniProt P31749); experiment: Inhibition of AKT

Compound | half-life [1] | IC50 [2] | IC50 [3] | other results
COc1cc(N2CCC(N3CCN(S(C)(=O)=O)CC3)CC2)ccc1Nc1nc(Nc2ccsc2C(N)=O)c2cc[nH]c2n1 | 17.9 days | 5 nM | 92 nM | 
COc1cc(N2CCN(C(C)C)CC2)ccc1Nc1nc(-n2[nH]c(=O)c3ccccc32)c2cc[nH]c2n1 |  | 6 nM | 546 nM | 
COc1cc(N2CCN(C(C)C)CC2)ccc1Nc1nc(N2CCc3ccccc32)c2cc[nH]c2n1 |  | 10 nM | 1770 nM | 
COc1cc(N2CCN(C(C)C)CC2)ccc1Nc1nc(Nc2ccccc2OC)c2cc[nH]c2n1 |  | 32 nM | 982 nM | 
COc1cc2c(cc1Nc1nc(N3CCc4ccccc43)c3cc[nH]c3n1)N(C(=O)CN(C)C)CCC2 | > 41.7 days | 0.5 nM | 15 nM | 
COc1cc(N2CCN(C(C)C)CC2)ccc1Nc1nc2[nH]ccc2c2nc3cccc(F)c3c(=O)n12 |  | 7.9 nM | 30000 nM | clearance [4]: 47 mL/min/kg; AUC (Rattus norvegicus [5]): 18 ng·h/mL/mg/kg; bioavailability [6]: 81%
COc1cc(N2CCN(C(C)C)CC2)ccc1Nc1nc(Nc2ccc3ncccc3c2)c2cc[nH]c2n1 |  | 13 nM | 773 nM | 
COc1cc(N2CCN(C(C)C)CC2)ccc1Nc1nc(Nc2cccc3c2NCC3)c2cc[nH]c2n1 |  | 400 nM | 1690 nM | 
COc1cc(N2CCN(C(C)C)CC2)ccc1Nc1nc(Nc2cc(F)ccc2C(N)=O)c2cc[nH]c2n1 | 0.167 days | 0.7 nM |  | 
COc1cc(N2CCN(C(C)C)CC2)ccc1Nc1nc(Nc2ccccc2-n2cccn2)c2cc[nH]c2n1 |  | 25 nM | 654 nM | 
COc1cc(N2CCN(C(C)C)CC2)ccc1Nc1nc(Nc2ccc(F)c(F)c2C(N)=O)c2cc[nH]c2n1 | 0.708 days | 1.3 nM |  | 
COc1cc(N2CCN(C(C)C)CC2)ccc1Nc1nc(Nc2cc(F)cc(F)c2C(N)=O)c2cc[nH]c2n1 | 1.62 days | 0.8 nM |  | 
COc1cc(N2CCN(C(C)C)CC2)ccc1Nc1nc(Nc2cccc(F)c2C(N)=O)c2cc[nH]c2n1 | 0.708 days | 2 nM | 117 nM | clearance [7]: 51 mL/min/kg; AUC (Rattus norvegicus [8]): 156 ng·h/mL/mg/kg; bioavailability [9]: 65%
COc1cc(N2CCN(CC(C)C)CC2)ccc1Nc1nc(Nc2ccccc2C#N)c2cc[nH]c2n1 |  | 79 nM | 2740 nM | 
CCCN1CCC(c2ccc(Nc3nc(Nc4ccsc4C(N)=O)c4cc[nH]c4n3)c(OC)c2)CC1 | 38.3 days | 1.3 nM | 52 nM | 
COc1cc(N2CCN(C(C)C)CC2)ccc1Nc1nc(Nc2ccc(F)cc2C(N)=O)c2cc[nH]c2n1 [GSK-1220512A] | 0.0833 days | 0.9 nM |  | 
COc1cc(N2CCN(C(C)C)CC2)ccc1Nc1nc(Nc2cccc3ncccc23)c2cc[nH]c2n1 [GSK-1511931A] |  | 250 nM | 2530 nM | 
COc1cc(N2CCN(C(C)C)CC2)ccc1Nc1nc(Nc2cccc(F)c2C(=O)O)c2cc[nH]c2n1 [GSK-1819799A] |  |  |  | clearance [4]: > 200 mL/min/kg; AUC (Rattus norvegicus [5]): 0 ng·h/mL/mg/kg; bioavailability [6]: 0%
COc1cc2c(cc1Nc1nc(N3CCc4ccccc43)c3cc[nH]c3n1)N(C(=O)CN(C)C)CC2 [GSK-2186269A] | > 41.7 days | 0.8 nM | 160 nM | 

More lines, main results first:

half-life [1] | IC50 [2] | IC50 [3] | Compound | other results
16.2 days | 2 nM | 25 nM | CNC(=O)c1cscc1Nc1nc(Nc2cc3c(cc2OC)CCN3C(=O)CN(C)C)nc2[nH]ccc12 | 
> 41.7 days | 0.3 nM | 9 nM | COc1cc2c(cc1Nc1nc(Nc3ccoc3C(N)=O)c3cc[nH]c3n1)N(C(=O)CN(C)C)CCC2 | 
1.12 days | 0.5 nM | 18 nM | COc1cc2c(cc1Nc1nc(Nc3cccnc3C(N)=O)c3cc[nH]c3n1)N(C(=O)CN(C)C)CCC2 | 
0.0833 days | 1 nM | 54 nM | COc1cc2c(cc1Nc1nc(Nc3cccc(F)c3C(N)=O)c3cc[nH]c3n1)N(C(=O)CN(C)C)CC2 | 
0.625 days | 0.7 nM | 38 nM | COc1cc2c(cc1Nc1nc(Nc3cccnc3C(N)=O)c3cc[nH]c3n1)N(C(=O)CN(C)C)CC2 | 
> 41.7 days | 1.6 nM | 106 nM | COc1cc(N2CCN(C(C)C)CC2)ccc1Nc1nc(Nc2ccsc2C(N)=O)c2cc[nH]c2n1 | 
10.4 days |  |  | COc1cc2c(cc1Nc1nc(Nc3ccsc3C(N)=O)c3cc[nH]c3n1)N(C(=O)CN(C)C)CC2 | IC50 [10]: 0.4 nM
> 41.7 days |  |  | COc1cc2c(cc1Nc1nc(Nc3ccoc3C(N)=O)c3cc[nH]c3n1)N(C(=O)CN(C)C)CC2 | 
> 41.7 days | 0.8 nM | 16 nM | COc1cc2c(cc1Nc1nc(Nc3cccc4c3C(=O)NC4)c3cc[nH]c3n1)N(C(=O)CN(C)C)CC2 | IC50 [11]: 0.8 nM; IC50 [12]: 2.5 nM
34.6 days | < 0.2 nM | 6 nM | COc1cc2c(cc1Nc1nc(Nc3ccsc3C(N)=O)c3cc[nH]c3n1)N(C(=O)CN(C)C)CCC2 [GSK-2110236A] | 
30 days | 0.2 nM | < 2 nM | COc1cc2c(cc1Nc1nc(Nc3ccsc3C(N)=O)c3cc[nH]c3n1)N(C(=O)CN(C)C)CCC2(C)C [GSK-2163632A] | 
